Several values for one entry are separate records, joined by “and”; a condition that tells them apart may be missing. Equal entries are not always repeated. Entries after “also recorded” stand apart in the source; their conditions may differ.
Key:
[1] = system: CAIX-expressing SK-RC-52 tumors; assay: PET/CT imaging of [Al18F]XYIMSR-04; assay type: in vivo, mice; details: 7.4 MBq (200 μCi) via tail vein
Experimental: (§1) Cell Lines and Mouse Models. Animal experiments were performed in accordance with protocols approved by the Johns Hopkins Animal Care and Use Committee (ACUC). Six-week-old female NOD/SCID mice were purchased from the Animal Resource Core of the Sidney Kimmel Comprehensive Cancer Center of Johns Hopkins and were subcutaneously injected in the lower left flank or upper right flank with 1×10^6 SK-RC-52 cells in RPMI 1640 GlutaMAX™ media (Life Technologies, Frederick, Md.) supplemented with 1% fetal bovine serum (FBS). Mice were monitored for tumor size and used for SPECT/CT imaging when the size of the tumor reached 100 mm^3.
PET/CT imaging of [Al^18F]XYIMSR-04. Mice harboring subcutaneous SK-RC-52 tumors with the lower left flank were injected with 7.4 MBq (200 μCi) of [Al^18F]XYIMSR-04 in 250 μL of PBS (pH=7.0) intravenously (tail vein). Anesthesia was then induced with 3% isofluorane and maintained at 2% isoflurane. Physiologic temperature was maintained with an external light source while the mouse was on the gantry. […] Whole body 2-bed PET scan was performed using ARGUS small-animal PET/CT scanner (Sedecal, Madrid, Spain) at 250-700 keV energy window. PET acquisition times were: 5 min/bed (1 h) post-injection of [Al^18F]XYIMSR-04. PET images were co-registered with the corresponding 360-slice CT images. […]

[2] = system: SK-RC-52 xenografts; assay: Biodistribution of [Al18F]XYIMSR-04; assay type: in vivo, mice; details: 1 h post-injection
Experimental: as §1
Biodistribution of [Al^18F]XYIMSR-04. Mice bearing SK-RC-52 xenografts within the lower left flank were injected intravenously with 740 kBq (20 μCi) of [Al^18F]XYIMSR-04 in 200 μL of PBS. At specific 1 hour time point mentioned in the paper, mice (n=5) were sacrificed by cervical dislocation and the blood was immediately collected by cardiac puncture. Heart, lungs, pancreas, spleen, fat, brain, muscle, small intestines, liver, bone, stomach, kidney, urinary bladder, and tumor were collected. Each organ was weighed and the tissue radioactivity was measured with an automated gamma counter (1282 Compugamma CS, Pharmacia/LKBNuclear, Inc., Mt. Waverly, Vic. Australia). The percentage of injected dose per gram of tissue (% ID/g) was calculated by comparison with samples of a standard dilution of the initial dose. All measurements were corrected for radioactive decay. Data were expressed as mean±standard deviation (SD). Prism software (GraphPAD, San Diego, Calif.) was used to determine statistical significance. Statistical significance was calculated using a paired t test. P-values […] were considered significant.

CC(CCC(=O)N[C@@H](CC(=O)N[C@@H](CC(=O)N[C@@H](CCCCn1cc(CCCC(=O)Nc2nnc(S(N)(=O)=O)s2)nn1)C(=O)NCCOCCOCCNC(=O)CN1CCN2CCN(CC1)CC(=O)[O][Al]([18F])[O]C(=O)C2)C(=O)O)C(=O)O)(c1ccc(O)cc1)c1ccc(O)cc1 [[Al^18F]XYIMSR-04]
PET/CT tumor imaging finding [1]: radiotracer uptake in tumor at 1 h post-injection; also recorded: tumor visualization by 1 h post-injection | Biodistribution: Bladder [2]: 20.12 ± 12.51 % ID/g | Biodistribution: Blood [2]: 0.65 ± 0.11 % ID/g | Biodistribution: Bone [2]: 1.91 ± 1.39 % ID/g | Biodistribution: Brain [2]: 0.66 ± 0.04 % ID/g | Biodistribution: Fat [2]: 1.54 ± 0.25 % ID/g | Biodistribution: Heart [2]: 5.03 ± 0.51 % ID/g | Biodistribution: Kidney (kid) [2]: 50.84 ± 2.65 % ID/g | Biodistribution: Liver [2]: 5.55 ± 0.91 % ID/g | Biodistribution: Lung [2]: 34.07 ± 5.85 % ID/g | Biodistribution: Muscle (mm) [2]: 1.74 ± 0.58 % ID/g | Biodistribution: Pancreas [2]: 3.47 ± 0.16 % ID/g | Biodistribution: Sm. intestine [2]: 9.59 ± 1.04 % ID/g | Biodistribution: Spleen [2]: 0.54 ± 0.18 % ID/g | Biodistribution: Stomach [2]: 21.62 ± 1.85 % ID/g | Biodistribution: Tumor [2]: 14.40 % ID/g and 14.40 ± 2.18 % ID/g | Tumor/Blood ratio [2]: 22.1 and 22.1 ± 1.5 | Tumor/kid (kidney) ratio [2]: 0.28 and 0.28 ± 0.03 | Tumor/mm (muscle) ratio [2]: 9.74 and 9.74 ± 2.9

From patent publication US20190192699A1, “NUCLEAR IMAGING AND RADIOTHERAPEUTICS AGENTS TARGETING CARBONIC ANHYDRASE IX AND USES THEREOF” (THE JOHNS HOPKINS UNIVERSITY, priority 2016, published 2019)
